Measurements published in ChEMBL document CHEMBL1697781, “Assessment of the health effects of chemicals in humans: II. Construction of an adverse effects database for QSAR modeling” (Curr Drug Discov Technol, 2004).

How the values were obtained:
Conditions in all cases: human; call rule not given here
Hepatotoxicity [1] = experiment: FDA HLAED, serum glutamic oxaloacetic transaminase (SGOT) increase
Hepatotoxicity [2] = experiment: FDA HLAED, liver enzyme composite activity
Hepatotoxicity [3] = experiment: FDA HLAED, gamma-glutamyl transferase (GGT) increase
Hepatotoxicity [4] = experiment: FDA HLAED, lactate dehydrogenase (LDH) increase
Hepatotoxicity [5] = experiment: FDA HLAED, alkaline phosphatase increase
Hepatotoxicity [6] = experiment: FDA HLAED, serum glutamic pyruvic transaminase (SGPT) increase
Throughout, for GGT Increase - Index Value: reference of the scale not given here.
Throughout, for LDH Increase - Index Value: reference of the scale not given here.

Row | SMILES | SGOT Increase - Activity Score (Hepatotoxicity [1]) | SGOT Increase - Index Value (Hepatotoxicity [1]) | SGOT Increase - Number of Reports (Hepatotoxicity [1]) | Composite Activity - Active (Hepatotoxicity [2]) | Composite Activity - Marginal (Hepatotoxicity [2]) | Composite Activity - Score (Hepatotoxicity [2]) | GGT Increase - Activity Score (Hepatotoxicity [3]) | GGT Increase - Index Value (Hepatotoxicity [3]) | GGT Increase - Number of Reports (Hepatotoxicity [3]) | LDH Increase - Activity Score (Hepatotoxicity [4]) | LDH Increase - Index Value (Hepatotoxicity [4]) | LDH Increase - Number of Reports (Hepatotoxicity [4]) | Alkaline Phosphatase Increase - Activity Score (Hepatotoxicity [5]) | Alkaline Phosphatase Increase - Index Value (Hepatotoxicity [5]) | Alkaline Phosphatase Increase - Number of Reports (Hepatotoxicity [5]) | SGPT Increase - Activity Score (Hepatotoxicity [6]) | SGPT Increase - Index Value (Hepatotoxicity [6]) | SGPT Increase - Number of Reports (Hepatotoxicity [6]) | further results
1 | C#CCN(C)[C@H](C)Cc1ccccc1 [SELEGILINE] | Inactive | 0.4 | < 4 | 0 | 0 | Inactive | Inactive | 1.8 | >= 4 | Inactive | 0 | < 4 | Inactive | 2.2 | >= 4 | Inactive | 1.5 | >= 4 | 
2 | CCOC(=O)N1CCC(=C2c3ccc(Cl)cc3CCc3cccnc32)CC1 [LORATADINE] | Inactive | 0.9 | >= 4 |  |  |  | Inactive | 0.5 | >= 4 | Inactive | 0.2 | < 4 | Inactive | 0.7 | >= 4 | Inactive | 0.6 | >= 4 | Composite Activity - Active (Hepatotoxicity [2]; Liver): 0; Composite Activity - Marginal (Hepatotoxicity [2]; Liver): 0; Composite Activity - Score (Hepatotoxicity [2]; Liver): Inactive
3 | CN1CC[C@]23c4c5ccc(O)c4O[C@H]2C(=O)CC[C@H]3[C@H]1C5 [HYDROMORPHONE] | Inactive | 0 | < 4 | 0 | 0 | Inactive | Inactive | 0 | < 4 | Inactive | 0 | < 4 | Inactive | 0 | < 4 | Inactive | 0 | < 4 | 
4 | CC(C)NCC(O)COc1ccc(COCCOC(C)C)cc1 (configuration not stated) [BISOPROLOL] | Inactive | 0 | < 4 | 1 | 0 | Inactive | Active | 12.3 | < 4 | Inactive | 0 | < 4 | Inactive | 3.1 | < 4 | Inactive | 3.1 | < 4 | 
5 | CC(C)c1cccc(C(C)C)c1O [PROPOFOL] | Inactive | 0.7 | >= 4 |  |  |  | Inactive | 0.1 | < 4 | Inactive | 0.5 | >= 4 | Inactive | 0.4 | >= 4 | Inactive | 0.5 | >= 4 | Composite Activity - Active (Hepatotoxicity [2]; Liver): 0; Composite Activity - Marginal (Hepatotoxicity [2]; Liver): 0; Composite Activity - Score (Hepatotoxicity [2]; Liver): Inactive
6 | Cc1ccc(C)c(OCCCC(C)(C)C(=O)O)c1 [GEMFIBROZIL] | Inactive | 0 | < 4 | 0 | 0 | Inactive | Inactive | 0 | < 4 | Inactive | 0 | < 4 | Inactive | 0 | < 4 | Inactive | 0 | < 4 | 
7 | N=C(N)c1ccc(OCCCCCOc2ccc(C(=N)N)cc2)cc1 [PENTAMIDINE] | Inactive | 5.7 | < 4 | 0 | 0 | Inactive | Inactive | 0 | < 4 | Inactive | 5.7 | < 4 | Inactive | 11.5 | < 4 | Inactive | 5.7 | < 4 | 
8 | COc1ccc(CCN(C)CCCC(C#N)(c2ccc(OC)c(OC)c2)C(C)C)cc1OC (configuration not stated) |  |  |  | 0 | 0 | Inactive | Inactive |  | < 4 | Inactive |  | < 4 | Inactive |  | >= 4 | Inactive |  | < 4 | 
9 | CC(C)c1nc(CN(C)C(=O)N[C@H](C(=O)N[C@@H](Cc2ccccc2)C[C@H](O)[C@H](Cc2ccccc2)NC(=O)OCc2cncs2)C(C)C)cs1 [RITONAVIR] |  |  | >= 4 |  |  |  |  |  | >= 4 |  |  | >= 4 |  |  | >= 4 |  |  | >= 4 | 
10 | CO[C@H]1/C=C/O[C@@]2(C)Oc3c(C)c(O)c4c(O)c(c(/C=N/N5CCN(C)CC5)c(O)c4c3C2=O)NC(=O)/C(C)=C\C=C\[C@H](C)[C@H](O)[C@@H](C)[C@@H](O)[C@@H](C)[C@H](OC(C)=O)[C@@H]1C [RIFAMPIN] | Active | No Shipping Units | >= 4 | 1 | 3 | Marginally Active |  |  |  | Marginally Active | No Shipping Units | >= 4 | Marginally Active | No Shipping Units | >= 4 | Marginally Active | No Shipping Units | >= 4 | 
